Test results taken from US20240148740A1, “COMBINATION OF AN AHR INHIBITOR WITH A PDX INHIBITOR OR DOXORUBICINE” (Ikena Oncology, Inc., priority 2020, published 2024).
Entries after “also recorded” stand apart in the source; their conditions may differ. Read-outs that look alike come from different tables or passages of the source.

Experiments:
AHR [1] = target: T1, AHR (Mus musculus, UniProt P30561); assay: Pharmacodynamics: CYP1A1 mRNA in murine liver and spleen after VAG539; format: in vivo
T1 sequence (P30561 10-805): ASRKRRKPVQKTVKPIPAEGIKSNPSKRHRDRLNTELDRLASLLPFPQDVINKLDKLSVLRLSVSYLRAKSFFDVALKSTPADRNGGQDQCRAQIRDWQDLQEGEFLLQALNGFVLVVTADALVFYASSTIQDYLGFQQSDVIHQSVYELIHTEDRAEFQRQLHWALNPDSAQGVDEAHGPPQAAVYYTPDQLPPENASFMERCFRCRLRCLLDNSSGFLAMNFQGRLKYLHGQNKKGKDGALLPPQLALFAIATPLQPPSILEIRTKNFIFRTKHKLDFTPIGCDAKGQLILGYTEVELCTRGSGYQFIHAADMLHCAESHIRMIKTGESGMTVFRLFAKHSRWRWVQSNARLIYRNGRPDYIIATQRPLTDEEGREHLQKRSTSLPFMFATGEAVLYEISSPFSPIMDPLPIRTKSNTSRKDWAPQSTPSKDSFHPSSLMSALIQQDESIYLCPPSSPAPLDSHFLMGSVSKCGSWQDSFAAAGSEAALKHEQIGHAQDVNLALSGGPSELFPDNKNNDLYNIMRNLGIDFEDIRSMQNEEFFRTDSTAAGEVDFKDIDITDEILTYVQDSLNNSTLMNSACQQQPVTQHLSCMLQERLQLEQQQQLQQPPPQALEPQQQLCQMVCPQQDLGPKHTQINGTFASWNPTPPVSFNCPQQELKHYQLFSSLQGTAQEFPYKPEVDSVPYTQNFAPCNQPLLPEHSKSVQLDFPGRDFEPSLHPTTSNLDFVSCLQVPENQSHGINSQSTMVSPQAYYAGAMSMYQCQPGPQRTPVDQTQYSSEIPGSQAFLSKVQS
Protocol: Mice were sacrificed at 4 and 10 hours postdose and RNA was extracted and gene expression of CYP1A1 and the housekeeping gene mouse glyceraldehyde 3-phosphate dehydrogenase were quantified. CYP1A1 mRNA expression levels for each dose group for liver and spleen tissues were normalized to the control group.

AHR [2] = target: T2, AHR (Homo sapiens, UniProt P35869); assay: Selectivity for AHR over other receptors, transporters, and kinases
T2 sequence (P35869 11-848): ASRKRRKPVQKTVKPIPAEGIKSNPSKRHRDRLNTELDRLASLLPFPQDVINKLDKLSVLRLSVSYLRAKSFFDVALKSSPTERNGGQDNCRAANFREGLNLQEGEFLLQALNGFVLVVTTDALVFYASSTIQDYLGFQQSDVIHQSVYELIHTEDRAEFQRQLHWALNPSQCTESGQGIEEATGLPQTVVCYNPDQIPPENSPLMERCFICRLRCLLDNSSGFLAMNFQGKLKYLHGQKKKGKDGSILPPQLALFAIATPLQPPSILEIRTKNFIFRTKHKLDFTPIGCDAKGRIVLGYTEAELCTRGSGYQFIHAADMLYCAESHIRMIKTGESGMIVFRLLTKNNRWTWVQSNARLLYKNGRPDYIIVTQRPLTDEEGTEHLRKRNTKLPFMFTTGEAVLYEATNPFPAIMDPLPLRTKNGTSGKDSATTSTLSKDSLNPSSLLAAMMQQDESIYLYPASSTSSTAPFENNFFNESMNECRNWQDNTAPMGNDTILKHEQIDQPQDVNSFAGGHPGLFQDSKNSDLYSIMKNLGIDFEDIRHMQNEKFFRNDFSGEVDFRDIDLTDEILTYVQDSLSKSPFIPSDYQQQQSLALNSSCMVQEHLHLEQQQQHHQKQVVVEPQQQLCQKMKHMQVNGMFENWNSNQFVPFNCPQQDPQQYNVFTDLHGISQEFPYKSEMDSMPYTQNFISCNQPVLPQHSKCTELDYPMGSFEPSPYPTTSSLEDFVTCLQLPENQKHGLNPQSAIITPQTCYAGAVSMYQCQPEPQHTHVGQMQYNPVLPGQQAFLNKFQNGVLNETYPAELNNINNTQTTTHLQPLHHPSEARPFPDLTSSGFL

AHR [3] = target: AHR (Macaca fascicularis, UniProt A0A7N9CQA9); assay: AHR-dependent gene expression in cynomolgus PBMCs (Quantigene Plex); format: cell-based, cynomolgus macaque; settings: cynomolgus PBMCs ex vivo
Protocol: The effect of Compound A on AHR-dependent gene expression was assessed in peripheral blood mononuclear cells (PBMCs) of cynomolgus macaque monkeys to assess activity in the non-rodent tox species. Cynomolgus PBMCs were treated ex vivo with Compound A and gene expression of AHR-dependent genes CYP1B1 and AHR was quantified using Quantigene Plex (QGP) custom panels.

[4] = Nonclinical safety studies in rat (incl. 28-day GLP); format: in vivo
[5] = Levels of doxorubicin in plasma (UPLC); format: in vivo, mouse; settings: day 28 after cell inoculation; FIG. 7
Protocol: To analyze the levels of doxorubicin in plasma, blood was collected using retro-orbital vein bleeding. Plasma was generated after centrifuging blood in dipotassium EDTA tubes for 10 min at 4° C. Plasma was transferred in new tubes and stored at −80° C.
Doxorubicin levels in plasma were analyzed by UPLC.
To determine whether Compound A treatment had any effects on doxorubicin metabolism, the levels of doxorubicin in plasma were analyzed on day 28 after cell inoculation.

[6] = Phase 1 study, interim cohort pharmacokinetics; format: in vivo, human
Protocol: Serial blood samples are obtained to characterize the plasma PK of Compound A and its major active metabolites. The initial sampling strategy is based on the predicted human PK of this compound. If in the course of evaluating the PK, it is determined that an alternative sampling scheme would be more informative, then that alternative sampling scheme can be implemented if the total amount of blood and blood draws obtained for PK is not increased. Moreover, the total number of samples can be decreased at any time if the initial sampling scheme is considered unnecessarily intensive.

AHR [7] = target: T2, AHR; assay: CYP1B1 gene expression in human whole blood exposed ex vivo; format: cell-based; parameters: endogenous in cells; settings: Compound A concentrations >0.5 μM; both donors; basal and ligand activated (L-kynurenine) conditions; 24 hours
Protocol: To further examine the effects of Compound A on basal and ligand-activated AHR-dependent gene expression in human immune cells, blood samples from 2 healthy human donors were exposed ex vivo to Compound A in the presence or absence of […] L-kynurenine to activate AHR. After 24 hours, cells were evaluated for CYP1B1 gene expression. […] In both donors, Compound A concentrations >0.5 μM inhibited CYP1B1 gene expression by greater than 50% under basal and ligand activated conditions.

Sequence of AHR (Macaca fascicularis, UniProt A0A7N9CQA9) (A0A7N9CQA9 entry or part of it): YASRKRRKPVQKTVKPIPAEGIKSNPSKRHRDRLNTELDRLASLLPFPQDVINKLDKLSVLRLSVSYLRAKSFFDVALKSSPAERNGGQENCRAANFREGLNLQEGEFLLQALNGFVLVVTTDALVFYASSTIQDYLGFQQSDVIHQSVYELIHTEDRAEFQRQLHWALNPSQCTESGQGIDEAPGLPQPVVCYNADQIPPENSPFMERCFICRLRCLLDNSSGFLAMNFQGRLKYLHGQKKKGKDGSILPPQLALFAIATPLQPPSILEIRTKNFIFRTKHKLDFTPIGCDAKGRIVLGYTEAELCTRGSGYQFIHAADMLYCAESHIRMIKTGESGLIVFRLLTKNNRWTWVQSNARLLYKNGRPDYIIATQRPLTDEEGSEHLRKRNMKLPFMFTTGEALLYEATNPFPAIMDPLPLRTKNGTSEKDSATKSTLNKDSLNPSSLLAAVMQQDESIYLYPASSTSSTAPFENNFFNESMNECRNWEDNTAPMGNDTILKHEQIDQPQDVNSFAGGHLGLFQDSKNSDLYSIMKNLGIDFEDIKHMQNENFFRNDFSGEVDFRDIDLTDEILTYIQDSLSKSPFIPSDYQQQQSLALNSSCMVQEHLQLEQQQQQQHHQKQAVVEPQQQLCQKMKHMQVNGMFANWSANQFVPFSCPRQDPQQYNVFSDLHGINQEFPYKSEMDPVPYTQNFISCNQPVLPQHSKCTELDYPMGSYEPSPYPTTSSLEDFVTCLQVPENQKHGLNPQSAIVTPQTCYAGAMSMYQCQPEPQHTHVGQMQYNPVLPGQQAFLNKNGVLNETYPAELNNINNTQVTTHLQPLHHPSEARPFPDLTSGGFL

## CC(C)c1cnn2c(N[C@@H]3CCc4[nH]c5ccccc5c4C3)nc(-c3cncc(F)c3)nc12 [Compound A, (R)—N-(2-(5-fluoropyridin-3-yl)-8-isopropylpyrazolo[1,5-a][1,3,5]triazin-4-yl)-2,3,4,9-tetrahydro-1H-carbazol-3-amine]
AHR [1]; 25 mg/kg Compound A oral with VAG539, at 4 hours
  inhibition of CYP1A1 mRNA induction, spleen: complete inhibition
AHR [1]; 25 mg/kg Compound A oral, coadministered with 30 mg/kg VAG539
  inhibition of CYP1A1 mRNA increases induced by VAG539, liver: Complete inhibition
AHR [2]
  selectivity for AHR over other receptors, transporters, and kinases: highly selective
AHR [3]; read-out: IC50, inhibition of AHR target gene AHR
  IC50: 30 nM
AHR [3]; read-out: IC50, inhibition of AHR target gene Cyp1B1
  IC50: 6 nM
[4]
  noteworthy findings (rats): non-glandular stomach ulceration and edema; also recorded: seminiferous tubule degeneration and debris in the epididymis lumen
[5]
  effect of Compound A treatment on doxorubicin drug levels in plasma / metabolism of Doxil: does not affect; also recorded: did not have any effect
[6]; Cycle 2 Day 1 (C2D1)
  dose proportionality of PK: greater than dose proportional
[6]; interim cohort PK
  exposure with increase in dose: Increased exposure with increase in dose
AHR [7]
  inhibition of CYP1B1 gene expression: greater than 50%
